# According to US20050196806A1, “Prostate specific antigen oligoepitope peptide” (The Government of the USA, as represented by the Secretary, …, priority 1996, published 2005):
# “And” between values parts separate entries of the source, which are not always exact repeats. Equal values may be shown once. Marks after values point to notes of the source that are not given here.
# Tests used:
# [1] = system: LNCAP PSA expressing human prostate cancer cell line; assay: Cytotoxic assay of PSA peptide specific T cells against LNCAP (Example III); type: cell-based; details: T-Donor A T-cell line; 24 hour assay, E:T ratio 25:1; listed as 141-150
# Excerpt: (§1) Four of the T cell lines derived from three different individuals were then assays for their ability to lyse human cells (Table 9). […] No lysis was seen using the PSA negative human colon cancer cell line COLO-205. While 80% lysis was seen using the LNCAP PSA expressing human prostate cancer cell line. When employing the NK target K562, which measures non-specific lysis due to NK cell activity, only 23% lysis was obtained. Similar results were seen employing a different T cell line obtained from the same patient which was derived from pulsing with PSA peptide 154-163. Two additional T cell lines which were derived from peptide 154-163 were also analyzed. One was from a normal donor (T-1538) and one was from a prostate cancer patient (T-PC2; T Donor C).
# CIR-A2 cells = assay: CTL activity of PSA-OP specific T cell lines against peptide pulsed CIR-A2 cells; type: cell-based, human; details: effector T/PSA-OP-1; 50 μg/ml peptide for 3 h; 18 h CTL assay; E:T ratio 25:1; No peptide 7.9(2.7)
# Description: Peripheral blood mononuclear cells (PBMCs) were obtained from heparinized blood of healthy HLA-A2 donors using a lymphocyte separation medium gradient (Organon Technika, Durham, N.C.). The mononuclear cell fraction was washed 3 times and PBMCs were resuspended in complete medium: AIM V (Life Technologies, Inc.) supplemented with 5% human AB serum (Valley Biomedical, Winchester, Va.), 2 mM glutamine, 100 U/ml of penicillin, and 100 μg/ml of streptomycin (GIBCO). Cells (2×10^5) in complete medium in a volume of 100 μl were put into each well of a 96-well flat-bottom assay plate (Corning, Costar Corp., Cambridge, Mass.). Peptides were added to cultures at a final concentration of […]. Cultures were incubated for 5 days at 37° C. in a humidified atmosphere containing 5% CO2. […]
# Various target cells were labeled with 50 μCi of ^111In-oxyquinoline (Medi-Physics Inc., Arlington, Ill.) for 15 minutes at room temperature. […] Determinations were carried out in triplicate and standard deviations were calculated. […] Specific Lysis was calculated using the following formula: % of Specific Release=observed release(cpm)−spontaneous release(cpm) total releae(cpm)−spontaneous release(cpm)×100
# Spontaneous release was determined from wells to which 100 μl of complete medium, instead of effector cells was added. Total releasable radioactivity was obtained after treatment of target cells with 2.5% Triton X-100.
# [2] = target: T1, HLA class-I A2001 molecule (Homo sapiens, UniProt P04439, D140Y/D185E/D98H/E176V/E277Q/G131W/G231S/I119V/I121R/I166T/I218V/L300P/L318F/N151K/N90K/P208A/P217A/Q86G/Q94H/R138H/R169H/T345S); assay: Peptide binding to HLA-A2: upregulation on T2 cells by flow cytometry (Example IV); details: T2 cells incubated 24 h with peptide 50 μg/ml/10^6 cells; 100 cut off value for positivity; None = 16.88
# T1 construct: endogenous in cells; host or cells: T2 cells (174CEM.T2, transport deletion mutant)
# Description: 1×10^6 cells in serum-free IMDM were incubated with peptides at the concentration of 50 μg/ml in 24-well culture plates at 37° C. in 5% CO2. Flow cytometry for peptide binding was performed using T2 cells and single color analysis. After cells were washed three times in DPBS as above, they were incubated for 1 hr with HLA-A2 specific MAb A2,69 (One lambda, Inc., Canoga Park, Calif.), using 10 μl of a 1× working dilution per 10^6 cells. MOPC-21 (Cappel/Organon Teknika Corp.) was used as isotype control. The cells were then washed three times and incubated with 1:100 dilution of fluorescein (FITC) labeled anti-mouse IgG (Kirkegaard & Perry, Gaithersburg, Md.). Analysis was carried out using the FACScan as described above. Cells were maintained on ice during all cell preparation and staining unless otherwise stated.
# NK target K562 = assay: Cytotoxic assay of PSA peptide specific T cells against K562; type: cell-based, human; details: T-Donor A T-cell line; 24 hour assay, E:T ratio 25:1
# Excerpt: as §1
# [3] = system: PBLs isolated from male HLA-A2001+ donors; assay: Limiting dilution analysis of CTL precursor frequency; type: cell-based, human; details: for Number of precursors (precursor frequency): calculated by X^2 minimization; for % of negative microcolonies, 10,000: two cycles of stimulation with the peptide, targets CIRA2 pulsed 3 h, cold K562
# Description: Limiting dilution assays were used for the determination of precursor frequencies to PSA-1, PSA-3 and PSA-OP. Various number of PBMCs were seeded in 96-well flat bottom plates (Coming Costar) with 1×10^4 autologous PBMC irradiated with 4,000 rads and incubated with 50 μg/ml of PSA peptide. Cells were cultured in complete medium as described previously. At least 48 cultures were set up for each dilution. Cultures were incubated for 5 days at 37° C. in a humidified atmosphere containing 5% CO2 and then provided with fresh medium containing human IL-2 for 11 days, with IL-2-containing medium being replenished every 72 hr as shown below for CTLs generation. After two cycles of stimulation specific cytotoxic activity was tested for each single well, against CIR-A2 target cells with or without incubation with peptide. Cytotoxic assays were similar to the method described above. The unlabelled K562 cells were added to the microwells containing responder cells. After 1 hr incubation at 37° C. target cells were added into each well and incubated for 6 hrs at 37° C. Precursor frequencies were calculated by X^2 minimization.
# T2 cells = assay: Cytotoxic assay of PSA peptide specific T cells against T2 cells; type: cell-based, human; details: 24 hour assay, E:T ratio 25:1
sequence,measurement,setting,value
"FLTPKKLQCV [PSA-1, ID No. 1]","% specific release (lysis), LNCAP",[1],80% and 80^b %
same,"% of Specific release (SD), CIR-A2 cells pulsed with the peptide",CIR-A2 cells,8.4(4.0) %
same,T2 binding: relative fluorescence (mean intensity) with anti-HLA-A2 mAb,[2],127.73
same,"% specific release (lysis), K562",NK target K562,23%
same,"% of negative microcolonies, 500",[3]; T/PSA-OP 2 donor,95.8%
same,"% of negative microcolonies, 1,000",[3]; T/PSA-OP 2 donor,93.7%
same,"% of negative microcolonies, 5,000",[3]; T/PSA-OP 2 donor,75.0%
same,Number of precursors (precursor frequency),[3]; T/PSA-OP 2 donor,1/14695
same,"% of negative microcolonies, 10,000",[3]; T/PSA-OP 2 donor,47.9%
same,"% of negative microcolonies, 500",[3]; T/PSA-OP 3 donor,100.0%
same,"% of negative microcolonies, 1,000",[3]; T/PSA-OP 3 donor,100.0%
same,"% of negative microcolonies, 5,000",[3]; T/PSA-OP 3 donor,97.9%
same,Number of precursors (precursor frequency),[3]; T/PSA-OP 3 donor,1/181480
same,"% of negative microcolonies, 10,000",[3]; T/PSA-OP 3 donor,93.7%
same,"% specific release (lysis), T2","T2 cells; T-Donor A T-cell line derived with the peptide, 111In release",10^a %
same,"% specific release (lysis), T2 + peptide",T2 cells; T-Donor A T-cell line,40^b %
